Laboratory results: article PMC9944867, “Mechanistic in vitro studies indicate that the clinical drug–drug interactions between protease inhibitors and rosuvastatin are driven by inhibition of intestinal BCRP and hepatic OATP1B1 with minimal contribution from OATP1B3, NTCP and OAT3” (Pharmacology Research & Perspectives, 2023)
Several values for one entry are separate records, joined by “and”; a condition that tells them apart may be missing. Identical values can stand only once. Like-named read-outs stand apart in the source and are kept apart here.

Tests used:
[1] = tested on: NTCP; set-up: method as in Vildhede et al.[33]; conditions: ref Vildhede et al.[33], cited from earlier work
[2] = target: T1, human OATP1B1 (SLCO1B1) (Homo sapiens, UniProt Q9Y6L6); assay: OATP1B1 inhibition in transporter-expressing HEK293 cells, [3H]-estradiol 17β-D-glucuronide uptake (IC50 determination); conditions: OATP1B1-mediated transport of [3H]-estradiol 17β-D-glucuronide (0.02 μM), HEK293
T1 sequence (Q9Y6L6 1-691): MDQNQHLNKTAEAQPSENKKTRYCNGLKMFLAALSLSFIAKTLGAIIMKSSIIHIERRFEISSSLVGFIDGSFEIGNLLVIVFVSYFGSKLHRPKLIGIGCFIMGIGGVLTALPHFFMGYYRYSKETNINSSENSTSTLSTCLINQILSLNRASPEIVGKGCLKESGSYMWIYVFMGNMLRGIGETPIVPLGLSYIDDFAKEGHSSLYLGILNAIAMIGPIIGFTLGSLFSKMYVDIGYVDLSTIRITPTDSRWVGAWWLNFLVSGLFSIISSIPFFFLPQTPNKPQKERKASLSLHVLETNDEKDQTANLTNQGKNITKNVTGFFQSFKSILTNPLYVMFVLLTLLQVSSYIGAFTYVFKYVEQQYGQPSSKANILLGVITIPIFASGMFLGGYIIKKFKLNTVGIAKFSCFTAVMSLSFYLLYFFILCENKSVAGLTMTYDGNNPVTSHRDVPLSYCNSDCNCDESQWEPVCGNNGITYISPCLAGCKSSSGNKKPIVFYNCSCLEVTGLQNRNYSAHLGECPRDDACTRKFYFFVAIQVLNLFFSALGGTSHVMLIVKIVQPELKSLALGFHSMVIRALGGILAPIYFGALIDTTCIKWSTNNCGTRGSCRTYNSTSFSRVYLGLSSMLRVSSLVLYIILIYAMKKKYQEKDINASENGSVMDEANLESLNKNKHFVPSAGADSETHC
Protocol: OATP1B1, OATP1B3, NTCP and vector control cell lines were cultured and subsequent transporter assays conducted as described above using the same transporter‐specific probe substrates and incubation times. For OATP1B1, the probe substrate was [^3H]‐estradiol 17β‐D‐glucuronide (0.02 μM) incubated for 2 min, with rifamycin SV (100 μM) as positive control inhibitor. For IC50 determinations, the only difference to the method performed above was that the 15‐min pre‐incubation step contained a range of six concentrations of protease inhibitor drug, and subsequent incubations were conducted with the same six concentration levels of drug rather than with a single concentration.

[3] = tested on: OATP1B3; set-up: method as in Vildhede et al.[33]; conditions: ref Vildhede et al.[33], cited from earlier work
[4] = target: T2, BCRP (Homo sapiens, UniProt Q9UNQ0); assay: Caco-2 unidirectional (B-A) BCRP inhibition assay, [3H]-estrone 3-sulfate transport (IC50 determination)
T2 sequence (Q9UNQ0 1-655): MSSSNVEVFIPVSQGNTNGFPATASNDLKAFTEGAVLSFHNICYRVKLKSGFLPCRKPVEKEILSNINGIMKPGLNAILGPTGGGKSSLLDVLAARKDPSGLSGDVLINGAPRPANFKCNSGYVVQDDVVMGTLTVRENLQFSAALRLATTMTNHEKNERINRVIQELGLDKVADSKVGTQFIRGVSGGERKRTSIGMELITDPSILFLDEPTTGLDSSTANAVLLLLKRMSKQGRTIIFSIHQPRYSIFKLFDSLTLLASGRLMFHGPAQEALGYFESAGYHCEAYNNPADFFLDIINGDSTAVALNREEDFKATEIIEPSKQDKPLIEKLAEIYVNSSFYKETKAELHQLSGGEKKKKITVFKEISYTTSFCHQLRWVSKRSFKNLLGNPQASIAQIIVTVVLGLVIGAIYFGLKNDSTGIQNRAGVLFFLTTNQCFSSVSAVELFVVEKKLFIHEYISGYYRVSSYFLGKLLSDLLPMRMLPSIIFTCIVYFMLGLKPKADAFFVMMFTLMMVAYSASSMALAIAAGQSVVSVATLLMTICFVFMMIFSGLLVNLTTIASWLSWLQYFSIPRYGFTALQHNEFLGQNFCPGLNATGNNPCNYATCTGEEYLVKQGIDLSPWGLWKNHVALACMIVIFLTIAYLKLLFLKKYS
Protocol: The methodology used was adapted from the previously validated Caco‐2 unidirectional (basolateral to apical; B‐A) BCRP inhibition assay.[13]
The BCRP inhibition experiments were performed between day 18 to 22 post‐seeding. […] After pre‐incubation, transport buffer was removed and the appropriate donor solutions were added to the basolateral donor compartment. […] Receiver solutions (final DMSO concentration of ≤1 % v/v) in transport buffer containing either the corresponding concentration of test inhibitor or DMSO (vehicle control), and the fluorescent cell monolayer integrity marker lucifer yellow (100 μM), were added to the apical compartments (total volume = 90 μL). Incubations were conducted in triplicate wells per assay condition in a heated incubator at 37°C for 90 min. Following the incubation, the amount (pmol) of [^3H]‐estrone 3‐sulfate appearing in the receiver compartment was determined by sampling (50 μL) into a white walled clear bottomed multiwell plate, to which scintillation fluid (200 μL) was added, and then samples counted on a Microbeta2 liquid scintillation counter (PerkinElmer). The quantified amount (derived from disintegrations per minute; DPM) of [^3H]‐estrone 3‐sulfate was subsequently converted to concentration (pmol/mL) and used to calculate apparent permeability (Papp), as described previously.[18]

[5] = target: T3, human OAT3 (SLC22A8) (Homo sapiens, UniProt Q8TCC7); assay: OAT3 single concentration inhibition screen in HEK293 cells; format: cell-based; conditions: ≥10x unbound [Cmax]: atazanavir 15 μM, darunavir 10 μM, lopinavir 3 μM, ritonavir 0.1 μM; probe 1 μM
T3 construct: host or cells: HEK293 TransportoCells
T3 sequence (Q8TCC7 1-542): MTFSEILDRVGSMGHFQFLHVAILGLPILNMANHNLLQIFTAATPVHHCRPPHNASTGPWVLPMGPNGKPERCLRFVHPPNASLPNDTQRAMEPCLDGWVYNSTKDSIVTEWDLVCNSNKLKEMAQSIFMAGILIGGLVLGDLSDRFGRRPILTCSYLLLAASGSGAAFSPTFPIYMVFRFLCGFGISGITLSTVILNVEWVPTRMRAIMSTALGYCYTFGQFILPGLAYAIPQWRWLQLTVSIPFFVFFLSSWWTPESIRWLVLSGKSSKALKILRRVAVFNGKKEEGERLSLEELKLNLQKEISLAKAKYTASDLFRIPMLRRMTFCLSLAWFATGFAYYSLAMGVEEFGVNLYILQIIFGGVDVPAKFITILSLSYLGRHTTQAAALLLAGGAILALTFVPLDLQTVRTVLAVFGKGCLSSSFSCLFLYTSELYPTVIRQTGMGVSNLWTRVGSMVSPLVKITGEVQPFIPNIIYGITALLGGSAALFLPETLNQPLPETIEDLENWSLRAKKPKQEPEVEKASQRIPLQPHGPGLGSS

[6] = IC50, determined values from different occasions (OATP1B1), single occasion
[7] = IC50 mean (OATP1B1), mean (±SD) of three occasions
[8] = IC50 mean (BCRP), BCRP-mediated B-A transport of [3H]-estrone 3-sulfate (1 μM), Caco-2, mean (±SD) of occasions, IC50 equates to Ki

Compound	Inhibition of NTCP, published ([1]; tested up to 10 μM)	IC50 [2, 6]	IC50 [2, 7] [nM]	Inhibition of OATP1B3, published ([3]; tested up to 10 μM)	IC50 [4]	IC50 [4, 8] [µM]	Inhibition of OAT3-mediated [3H]-estrone 3-sulfate transport, single concentration screen [5]	Inhibition of NTCP, published ([1]; tested up to 40 μM)	Published IC50/Ki (OATP1B3) ([3]; probe substrate atorvastatin)
Cc1cccc(C)c1OCC(=O)N[C@@H](Cc1ccccc1)[C@@H](O)C[C@H](Cc1ccccc1)NC(=O)[C@H](C(C)C)N1CCCNC1=O [lopinavir]	no inhibition	291 nM and 207 nM and 162 nM	220	no inhibition	12.7 µM and 18.3 µM and 15.6 µM	15.5	neither atazanavir, darunavir, lopinavir nor ritonavir inhibited OAT3 transport		
COC(=O)N[C@H](C(=O)N[C@@H](Cc1ccccc1)[C@@H](O)CN(Cc1ccc(-c2ccccn2)cc1)NC(=O)[C@@H](NC(=O)OC)C(C)(C)C)C(C)(C)C [atazanavir]		583 nM and 690 nM	734		49.8 µM and 30.3 µM and 51.5 µM and 37.1 µM	42.2	neither atazanavir, darunavir, lopinavir nor ritonavir inhibited OAT3 transport	no inhibition	7.3 (atorvastatin) μM
